{"source": "PubChem BioAssay AID1259407", "about": "(Chemical Carcinogenesis Research Information System (CCRIS), 2018)", "test_system": "CCRIS mutagenicity, Ames/micronucleus/aberration tests", "assay": "CCRIS mutagenicity studies", "settings": "Test System: AMES SALMONELLA TYPHIMURIUM", "key": {"[1]": {"settings": "Strain/Indicator: TA98, Metabolic Activation: NONE, Method: STANDARD PLATE"}, "[2]": {"settings": "Strain/Indicator: TA100, Metabolic Activation: NONE, Method: STANDARD PLATE"}}, "note": "Activity calls are given as the source filed them. No rule for the calls is given here."}
{"smiles": "Cc1ccc(N=NN(C)C)cc1", "values": [{"measurement": "mutagenic call", "setting": "Strain/Indicator: TA92, Metabolic Activation: MOUSE, LIVER, S-9, POLYCHLORINATED BIPHENYLS, Method: PREINCUBATION", "value": "inactive; negative"}, {"measurement": "mutagenic call", "setting": "Strain/Indicator: TA92, Metabolic Activation: MOUSE, LIVER, S-9, POLYCHLORINATED BIPHENYLS, Method: STANDARD PLATE", "value": "inactive; negative"}, {"measurement": "mutagenic call", "setting": "Strain/Indicator: TA92, Metabolic Activation: NONE, Method: STANDARD PLATE", "value": "inactive; negative"}, {"measurement": "mutagenic call", "setting": "Strain/Indicator: TA97, Metabolic Activation: MOUSE, LIVER, S-9, POLYCHLORINATED BIPHENYLS, Method: PREINCUBATION", "value": "inactive; negative"}, {"measurement": "mutagenic call", "setting": "Strain/Indicator: TA97, Metabolic Activation: MOUSE, LIVER, S-9, POLYCHLORINATED BIPHENYLS, Method: STANDARD PLATE", "value": "inactive; negative"}, {"measurement": "mutagenic call", "setting": "Strain/Indicator: TA97, Metabolic Activation: NONE, Method: STANDARD PLATE", "value": "active; positive"}, {"measurement": "mutagenic call", "setting": "Strain/Indicator: TA98, Metabolic Activation: MOUSE, LIVER, S-9, POLYCHLORINATED BIPHENYLS, Method: PREINCUBATION", "value": "inactive; negative"}, {"measurement": "mutagenic call", "setting": "Strain/Indicator: TA98, Metabolic Activation: MOUSE, LIVER, S-9, POLYCHLORINATED BIPHENYLS, Method: STANDARD PLATE", "value": "active; positive"}, {"measurement": "mutagenic call", "setting": "[1]", "value": "active; positive"}, {"measurement": "mutagenic call", "setting": "Strain/Indicator: TA100, Metabolic Activation: MOUSE, LIVER, S-9, POLYCHLORINATED BIPHENYLS, Method: PREINCUBATION", "value": "inactive; negative"}, {"measurement": "mutagenic call", "setting": "Strain/Indicator: TA100, Metabolic Activation: MOUSE, LIVER, S-9, POLYCHLORINATED BIPHENYLS, Method: STANDARD PLATE", "value": "inactive; negative"}, {"measurement": "mutagenic call", "setting": "[2]", "value": "inactive; negative"}, {"measurement": "mutagenic call", "setting": "Strain/Indicator: TA1535, Metabolic Activation: MOUSE, LIVER, S-9, POLYCHLORINATED BIPHENYLS, Method: PREINCUBATION", "value": "inactive; negative"}, {"measurement": "mutagenic call", "setting": "Strain/Indicator: TA1535, Metabolic Activation: MOUSE, LIVER, S-9, POLYCHLORINATED BIPHENYLS, Method: STANDARD PLATE", "value": "inactive; negative"}, {"measurement": "mutagenic call", "setting": "Strain/Indicator: TA1535, Metabolic Activation: NONE, Method: STANDARD PLATE", "value": "inactive; negative"}, {"measurement": "mutagenic call", "setting": "Strain/Indicator: TA1537, Metabolic Activation: MOUSE, LIVER, S-9, POLYCHLORINATED BIPHENYLS, Method: PREINCUBATION", "value": "active; positive"}, {"measurement": "mutagenic call", "setting": "Strain/Indicator: TA1537, Metabolic Activation: MOUSE, LIVER, S-9, POLYCHLORINATED BIPHENYLS, Method: STANDARD PLATE", "value": "active; positive"}, {"measurement": "mutagenic call", "setting": "Strain/Indicator: TA1537, Metabolic Activation: NONE, Method: STANDARD PLATE", "value": "active; positive"}, {"measurement": "mutagenic call", "setting": "Strain/Indicator: TA1538, Metabolic Activation: MOUSE, LIVER, S-9, POLYCHLORINATED BIPHENYLS, Method: PREINCUBATION", "value": "active; positive"}, {"measurement": "mutagenic call", "setting": "Strain/Indicator: TA1538, Metabolic Activation: MOUSE, LIVER, S-9, POLYCHLORINATED BIPHENYLS, Method: STANDARD PLATE", "value": "active; positive"}, {"measurement": "mutagenic call", "setting": "Strain/Indicator: TA1538, Metabolic Activation: NONE, Method: STANDARD PLATE", "value": "active; positive"}]}
{"smiles": "CC1(O)CC2CCC1(C)C2(C)C", "note": "(stereo not given)", "values": [{"measurement": "mutagenic call", "setting": "[1]", "value": "inactive; negative"}, {"measurement": "mutagenic call", "setting": "Strain/Indicator: TA98, Metabolic Activation: RAT, LIVER, S-9, AROCLOR 1254, Method: STANDARD PLATE", "value": "inactive; negative"}, {"measurement": "mutagenic call", "setting": "[2]", "value": "inactive; negative"}, {"measurement": "mutagenic call", "setting": "Strain/Indicator: TA100, Metabolic Activation: RAT, LIVER, S-9, AROCLOR 1254, Method: STANDARD PLATE", "value": "inactive; negative"}]}
